Laboratory results from publication PMC5308787, “Isoprenoid-phospholipid conjugates as potential therapeutic agents: Synthesis, characterization and antiproliferative studies” (PLoS ONE, 2017).

What was measured:
[1] = system: A-549 (non-small cell lung cancer); test: Antiproliferative SRB assay, 72 h exposure; format: cell-based, human; details: Homo sapiens, A549, mean ± SD of 3–5 experiments, n.a. = no activity in concentration of 5, 25, 125, 625 μM
Description: (§1) The biological studies were performed in vitro using human cancer cell lines: MV4-11 (human biphenotypic B myelomonocytic leukaemia), A-549 (non-small cell lung cancer), MCF-7 (breast cancer), LoVo (colon cancer), LoVo/DX (colon cancer drug resistant), HepG2 (liver cancer) and BALB/3T3 (normal mice fibroblasts). These lines were obtained from American Type Culture Collection (Rockville, Maryland, U.S.A.). The cell line is being maintained in the Institute of Immunology and Experimental Therapy, Wroclaw, Poland. All cell lines were grown at 37°C with 5% CO2 humidified atmosphere and were cultured in cultured medium according to the method described before.
(§2) Prior to usage, the compounds were dissolved in DMSO or in mixture of 99.8% ethanol and DMSO (1:1) to the concentration of 25 or 50 mM, and subsequently diluted in culture medium to reach the required concentrations (ranging from 5 to 625 μM).
(§3) Twenty-four hours prior to the addition of tested compounds, the cells were plated in 96-well plates (Sarstedt, Germany) at a density of 1 × 10^4 cells per well in 100 μL of culture medium. The assay was performed after 72 h of exposure to varying concentrations of the tested agents. The in vitro cytotoxic effect of tested agents was examined using the MTT (for MV4-11 cells) or SRB assay which were described previously. Each compound in each concentration was tested in triplicate in a single experiment, which was repeated 3–5 times.
(§4) The results of antiproliferative activity were given as IC50 values. Using this parameter we calculated also the resistance indexes (RI) dividing the IC50 values of selected compounds estimated for drug resistant cell LOVO/DX line by respective values designated for drug sensitive LoVo line. According to Harker et al. three categories of the cells could be distinguished: (a) the cells are drug-sensitive—if the ratio approaches 0–2; (b) the cells are moderately drug-resistant—if the ratio ranges from 2 to 10; (c) the cells are markedly drug-resistant—if the ratio is higher than 10.

[2] = system: LoVo/DX (colon cancer drug resistant); test: Antiproliferative SRB assay, 72 h exposure; format: cell-based, human; details: Homo sapiens, LoVo/DX, mean ± SD of 3–5 experiments, n.a. = no activity in concentration of 5, 25, 125, 625 μM
Description: as §1, §2, §3, §4

HepG2 (liver cancer) = test: Antiproliferative SRB assay, 72 h exposure; format: cell-based, human; details: Homo sapiens, HepG2, mean ± SD of 3–5 experiments, n.a. = no activity in concentration of 5, 25, 125, 625 μM
Description: as §1, §2, §3, §4

LoVo (colon cancer) = test: Antiproliferative SRB assay, 72 h exposure; format: cell-based, human; details: LoVo; for IC50: Homo sapiens, SRB, 72 h, mean ± SD of 3–5 experiments, n.a. = no activity in concentration of 5, 25, 125, 625 μM
Description: as §1, §2, §3, §4

MCF-7 (breast cancer) = test: Antiproliferative SRB assay, 72 h exposure; format: cell-based, human; details: Homo sapiens, MCF7, mean ± SD of 3–5 experiments, n.a. = no activity in concentration of 5, 25, 125, 625 μM
Description: as §1, §2, §3, §4

[3] = system: drug resistant LOVO/DX line vs drug sensitive LoVo line; test: Resistance index (RI): IC50 LOVO/DX divided by IC50 LoVo; format: cell-based, human; details: for able to overcome the barrier of P-gp-dependent resistance: judged from RI; for Resistance index (RI): RI = IC50 resistant line / IC50 non-resistant line, 0<RI<2 able to overcome drug resistance, 2<RI<10 moderate ability, RI>10 no influence
Source text: as §4

[4] = system: BALB/3T3 (normal mice fibroblasts); test: Antiproliferative SRB assay, 72 h exposure; format: cell-based; details: Mus musculus, BALB/3T3, mean ± SD of 3–5 experiments, n.a. = no activity in concentration of 5, 25, 125, 625 μM
Description: as §1, §2, §3, §4

[5] = system: MV4-11 (human biphenotypic B myelomonocytic leukaemia); test: Antiproliferative MTT assay, 72 h exposure; format: cell-based; details: Homo sapiens, MV4-11, mean ± SD of 3–5 independent experiments
Description: as §1, §2, §3, §4

[6] = system: lung (A549), colon (LoVo) and liver (HepG2) cancer cell lines; test: Antiproliferative activity, range over several cancer cell lines as stated in text; format: cell-based; details: Homo sapiens, read-out: IC50 against lung (A549), colon (LoVo) and liver (HepG2) cancer cell lines
Description: as §1, §2
Twenty-four hours prior to the addition of tested compounds, the cells were plated in 96-well plates (Sarstedt, Germany) at a density of 1 × 10^4 cells per well in 100 μL of culture medium. […]
The results of antiproliferative activity were given as IC50 values. Using this parameter we calculated also the resistance indexes (RI) dividing the IC50 values of selected compounds estimated for drug resistant cell LOVO/DX line by respective values designated for drug sensitive LoVo line. […]

Row | IC50 [1] | IC50 [2] | IC50 (HepG2 (liver cancer)) | IC50 (LoVo (colon cancer)) | IC50 (MCF-7 (breast cancer)) | IC50 [5] | IC50 [6] | SMILES | activity against colon cancer cell line, fold lower than cisplatin (LoVo (colon cancer)) | able to overcome the barrier of P-gp-dependent resistance [3] | IC50 [4] | Resistance index (RI) [3]
1 | 30.4 ± 1.5 µM | 57.6 ± 0.6 µM | 53.6 ± 5.1 µM | 13.6 ± 0.7 µM | 45 ± 1.4 µM | 27.8 ± 7.52 µM | 13.6 to 57.8 µM | C=CC(C)(CC/C=C(\C)CCC=C(C)C)CC(=O)OC[C@H](COP(=O)([O-])OCC[N+](C)(C)C)OC(=O)CC(C)(C=C)CC/C=C(\C)CCC=C(C)C (stereo partly drawn) [Compound 6b] | 5 fold | exception | 57.8 ± 1.4 µM | –
2 | 75.7 ± 10.6 µM | 111 ± 19.4 µM | 134 ± 51 µM | 54.4 ± 3.2 µM | 89.7 ± 11.3 µM | 65.1 ± 12.2 µM | – | CCC/C=C1/C(C)(C)CCCC1(C)CC(=O)O[C@H](COC(=O)CCCCCCCCCCCCCCC)COP(=O)([O-])OCC[N+](C)(C)C (stereo partly drawn) [Compound 7c, (2’R)-1’-palmitoyl-2’-{2-[(3R,2"E)-2"-butylidene-1",3",3"-trimethyl]cyclohexyl}acetyl-sn-glycero-3’-phospocholine + (2’R)-1’-palmitoyl-2’-{2-[(3S,2"E)-2"-butylidene-1",3",3"-trimethyl]cyclohexyl}acetyl-sn-glycero-3’-phospocholine] | – | exception | 276 ± 25.7 µM | 1.35
3 | 260 ± 33.6 µM | 280 ± 44.4 µM | 344 ± 40.9 µM | 241 ± 15.1 µM | 250 ± 45.2 µM | 112 ± 39.8 µM | – | C=CC(C)(CC/C=C(\C)CCC=C(C)C)CC(=O)OC[C@@H](O)COP(=O)([O-])OCC[N+](C)(C)C (stereo partly drawn) [Compound 8b] | – | – | 297 ± 18.6 µM | 1.99
